Experimental findings from patent US7906655B2, “Hepatitis C virus inhibitors” (Bristol-Myers Squibb Company, priority 2008, dated 2011) are described below.

One experiment concerns HCV 1b genotype. The experiment can be described thus: HCV Replicon assay (HCV-neo replicon cells, wild-type). To be noted: HCV 1b genotype replicon; class symbols. Type of experiment: cell-based. In short, it runs like this:
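Assay used wild-type HCV genotype 1b replicon cells carrying neo, with luciferase reporter read-outs in some formats.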
In general terms: In antiviral work, replicon cells carry a viral genome segment that copies itself.
Consider `C[C@@](O)(C(=O)N1CCC[C@H]1c1nc2cc(C#Cc3ccc4[nH]c([C@@H]5CCCN5C(=O)[C@@](C)(O)c5ccccc5)nc4c3)ccc2[nH]1)c1ccccc1` [Example M16], for which the EC50 (as a rule, the midpoint of the concentration-response curve) was less than 4.57 nM.

As to `O=C(c1cccnc1)N1CCC[C@H]1c1nc2cc(C#Cc3ccc4[nH]c([C@@H]5CCCN5C(=O)c5cccnc5)nc4c3)ccc2[nH]1` [Example M26.1, N,N′-(1,2-ethynediyl)bis(2-((2S)-1-(3-pyridinylcarbonyl)-2-pyrrolidinyl)-1H-benzimidazole)], the half-maximal effective concentration (EC50) is 100 to 999 nM.

As for `O=C(C(=O)N1CCC[C@H]1c1nc2cc(C#Cc3ccc4[nH]c([C@@H]5CCCN5C(=O)C(=O)c5ccccc5)nc4c3)ccc2[nH]1)c1ccccc1` [Example M26.3, 2.2′-(1,2-ethynediylbis(1H-benzimidazole-5,2-diyl(2S)-2,1-pyrrolidinediyl))bis(2-oxo-1-phenylethanone)], the EC50 is 100 to 999 nM.

In the case of `O=C([C@@H]1CCCO1)N1CCC[C@H]1c1nc2cc(C#Cc3ccc4[nH]c([C@@H]5CCCN5C(=O)[C@@H]5CCCO5)nc4c3)ccc2[nH]1` [Example M26.5], the EC50 was 100 to 999 nM.

Turning to `C[C@H](NC(=O)[C@H](O)c1ccccc1)c1nc2cc(C#Cc3ccc4[nH]c([C@H](C)NC(=O)[C@H](O)c5ccccc5)nc4c3)ccc2[nH]1` [Example M27], the EC50 is less than 4.57 nM.

As to `C[C@H](NC(=O)[C@@](C)(O)c1ccccc1)c1nc2cc(C#Cc3ccc4[nH]c([C@H](C)NC(=O)[C@@](C)(O)c5ccccc5)nc4c3)ccc2[nH]1` [Example M28], the 50% effective concentration (EC50) is less than 4.57 nM.

The same experiment, now with this note: Hepatitis C virus, HCV 1b genotype replicon; class symbols.
Regarding `O=C(Cc1cccnc1)N1CCC[C@H]1c1nc2cc(C#Cc3ccc4[nH]c([C@@H]5CCCN5C(=O)Cc5cccnc5)nc4c3)ccc2[nH]1` [Example M11, 5,5′-(1,2-ethynediyl)bis(2-((2S)-1-(3-pyridinylacetyl)-2-pyrrolidinyl)-1H-benzimidazole)], the EC50 was less than 4.57 nM.

Consider `Cn1cccc1C(=O)N1CCC[C@H]1c1nc2cc(C#Cc3ccc4[nH]c([C@@H]5CCCN5C(=O)c5cccn5C)nc4c3)ccc2[nH]1` [Example M12, 5,5′-(1,2-ethynediyl)bis(2-((2S)-1-((1-methyl-1H-pyrrol-2-yl)carbonyl)-2-pyrrolidinyl)-1H-benzimidazole)], for which the EC50 fell in the range of 4.57 to 99 nM.

For `O=C(c1ccoc1)N1CCC[C@H]1c1nc2cc(C#Cc3ccc4[nH]c([C@@H]5CCCN5C(=O)c5ccoc5)nc4c3)ccc2[nH]1` [Example M13, 5,5′-(1,2-ethynediyl)bis(2-((2S)-1-(3-furoyl)-2-pyrrolidinyl)-1H-benzimidazole)], the half-maximal effective concentration (EC50) is less than 4.57 nM.

Turning to `O=C(C1CCOC1)N1CCC[C@H]1c1nc2cc(C#Cc3ccc4[nH]c([C@@H]5CCCN5C(=O)C5CCOC5)nc4c3)ccc2[nH]1` (stereo partly drawn) [Example M14, 5,5′-(1,2-ethynediyl)bis(2-((2S)-1-(tetrahydro-3-furanylcarbonyl)-2-pyrrolidinyl)-1H-benzimidazole)], the concentration for a half-maximal effect (EC50) lay in the range of 4.57 to 99 nM.

Regarding `O=C([C@H](O)c1ccccc1)N1CCC[C@H]1c1nc2cc(C#Cc3ccc4[nH]c([C@@H]5CCCN5C(=O)[C@H](O)c5ccccc5)nc4c3)ccc2[nH]1` [Example M15, (1R,1′R)-2,2′-(1,2-ethynediylbis(1H-benzimidazole-5,2-diyl(2S)-2,1-pyrrolidinediyl))bis(2-oxo-1-phenylethanol)], the EC50 is less than 4.57 nM.

As for `COc1cccc2c(C(=O)N3CCC[C@H]3c3nc4cc(C#Cc5ccc6nc([C@@H]7CCCN7C(=O)c7nc(Cl)cc8c(OC)cccc78)[nH]c6c5)ccc4[nH]3)nc(Cl)cc12` [Example M18, 3-chloro-1-(((2S)-2-(5-((2-((2S)-1-((3-chloro-5-methoxy-1-isoquinolinyl)carbonyl)-2-pyrrolidinyl)-1H-benzimidazol-6-yl)ethynyl)-1H-benzimidazol-2-yl)-1-pyrrolidinyl)carbonyl)-5-methoxyisoquinoline], the 50% effective concentration (EC50) lay within 100 to 999 nM.

With `CN(C)[C@@H](C(=O)N1CCC[C@H]1c1nc2cc(C#Cc3ccc4nc([C@@H]5CCCN5C(=O)[C@@H](c5ccccc5)N(C)C)[nH]c4c3)ccc2[nH]1)c1ccccc1` [Example M19, (1R)-2-((2S)-2-(5-((2-((2S)-1-((2R)-2-(dimethylamino)-2-phenylacetyl)-2-pyrrolidinyl)-1H-benzimidazol-6-yl)ethynyl)-1H-benzimidazol-2-yl)-1-pyrrolidinyl)-N,N-dimethyl-2-oxo-1-phenylethanamine], the concentration for a half-maximal effect (EC50) is less than 4.57 nM.

Turning to `O=CN[C@@H](C(=O)N1CCC[C@H]1c1nc2cc(C#Cc3ccc4[nH]c([C@@H]5CCCN5C(=O)[C@H](NC=O)c5ccccc5)nc4c3)ccc2[nH]1)c1ccccc1` [Example M20, N,N′-(1,2-ethynediylbis(1H-benzimidazole-5,2-diyl(2S)-2,1-pyrrolidinediyl((1R)-2-oxo-1-phenyl-2,1-ethanediyl)))diformamide], the EC50 is less than 4.57 nM.

On to `CC(=O)N[C@@H](C(=O)N1CCC[C@H]1c1nc2cc(C#Cc3ccc4nc([C@@H]5CCCN5C(=O)[C@H](NC(C)=O)c5ccccc5)[nH]c4c3)ccc2[nH]1)c1ccccc1` [Example M21, N-((1R)-2-((2S)-2-(5-((2-((2S)-1-((2R)-2-acetamido-2-phenylacetyl)-2-pyrrolidinyl)-1H-benzimidazol-6-yl)ethynyl)-1H-benzimidazol-2-yl)-1-pyrrolidinyl)-2-oxo-1-phenylethyl)acetamide], for which the EC50 is less than 4.57 nM.

In the case of `O=C([C@@H](c1ccccc1)N1CCOCC1)N1CCC[C@H]1c1nc2cc(C#Cc3ccc4[nH]c([C@@H]5CCCN5C(=O)[C@@H](c5ccccc5)N5CCOCC5)nc4c3)ccc2[nH]1` [Example M22, 5,5′-(1,2-ethynediyl)bis(2-((2S)-1-((2R)-2-(4-morpholinyl)-2-phenylacetyl)-2-pyrrolidinyl)-1H-benzimidazole)], the concentration for a half-maximal effect (EC50) was less than 4.57 nM.

As for `COC(=O)N[C@@H](C(=O)N1CCC[C@H]1c1nc2cc(C#Cc3ccc4[nH]c([C@@H]5CCCN5C(=O)[C@H](NC(=O)OC)c5ccccc5)nc4c3)ccc2[nH]1)c1ccccc1` [Example M23, dimethyl (1,2-ethynediylbis(1H-benzimidazole-5,2-diyl(2S)-2,1-pyrrolidinediyl((1R)-2-oxo-1-phenyl-2,1-ethanediyl)))biscarbamate], the EC50 is less than 4.57 nM.

Consider `COC(=O)N[C@H](C(=O)N1CCC[C@H]1c1nc2cc(C#Cc3ccc4[nH]c([C@@H]5CCCN5C(=O)[C@@H](NC(=O)OC)C(C)C)nc4c3)ccc2[nH]1)C(C)C` [Example M24, methyl ((1S)-1-(((2S)-2-(5-((2-((2S)-1-((2S)-2-((methoxycarbonyl)amino)-3-methylbutanoyl)-2-pyrrolidinyl)-1H-benzimidazol-5-yl)ethynyl)-1H-benzimidazol-2-yl)-1-pyrrolidinyl)carbonyl)-2-methylpropyl)carbamate], for which the half-maximal effective concentration (EC50) is less than 4.57 nM.

`COC(=O)N[C@@H](C)C(=O)N1CCC[C@H]1c1nc2cc(C#Cc3ccc4[nH]c([C@@H]5CCCN5C(=O)[C@H](C)NC(=O)OC)nc4c3)ccc2[nH]1` [Example M25, methyl ((1S)-2-((2S)-2-(5-((2-((2S)-1-(N-(methoxycarbonyl)-L-alanyl)-2-pyrrolidinyl)-1H-benzimidazol-5-yl)ethynyl)-1H-benzimidazol-2-yl)-1-pyrrolidinyl)-1-methyl-2-oxoethyl)carbamate]: the concentration for a half-maximal effect (EC50) lay in the range of 4.57 to 99 nM.

For `COC(=O)N[C@H](C)C(=O)N1CCC[C@H]1c1nc2cc(C#Cc3ccc4[nH]c([C@@H]5CCCN5C(=O)[C@@H](C)NC(=O)OC)nc4c3)ccc2[nH]1` [Example M26, methyl ((1R)-2-((2S)-2-(5-((2-((2S)-1-(N-(methoxycarbonyl)-D-alanyl)-2-pyrrolidinyl)-1H-benzimidazol-5-yl)ethynyl)-1H-benzimidazol-2-yl)-1-pyrrolidinyl)-1-methyl-2-oxoethyl)carbamate], the concentration for a half-maximal effect (EC50) was less than 4.57 nM.

On to `O=C(c1nc(Cl)cc2ccccc12)N1CCC[C@H]1c1nc2cc(C#Cc3ccc4nc([C@@H]5CCCN5C(=O)c5nc(Cl)cc6ccccc56)[nH]c4c3)ccc2[nH]1` [Example M26.2, 3-chloro-1-(((2S)-2-(5-((2-((2S)-1-((3-chloro-1-isoquinolinyl)carbonyl)-2-pyrrolidinyl)-1H-benzimidazol-6-yl)ethynyl)-1H-benzimidazol-2-yl)-1-pyrrolidinyl)carbonyl)isoquinoline], for which the EC50 was 100 to 999 nM.

Consider `O=C(OCc1ccccc1)N1CCC[C@H]1c1nc2cc(C#Cc3ccc4nc([C@@H]5CCCN5C(=O)OCc5ccccc5)[nH]c4c3)ccc2[nH]1` [Example M26.4, benzyl (2S)-2-(5-((2-((2S)-1-((benzyloxy)carbonyl)-2-pyrrolidinyl)-1H-benzimidazol-6-yl)ethynyl)-1H-benzimidazol-2-yl)-1-pyrrolidinecarboxylate], for which the EC50 lay within 4.57 to 99 nM.

`O=C(c1ccco1)N1CCC[C@H]1c1nc2cc(C#Cc3ccc4[nH]c([C@@H]5CCCN5C(=O)c5ccco5)nc4c3)ccc2[nH]1` [Example M26.6, 5,5′-(1,2-ethynediyl)bis(2-((2S)-1-(2-furoyl)-2-pyrrolidinyl)-1H-benzimidazole)]: the EC50 lay in the range of 4.57 to 99 nM.

With `C[C@H](NC(=O)[C@@H](c1ccccc1)N(C)C)c1nc2cc(C#Cc3ccc4nc([C@H](C)NC(=O)[C@@H](c5ccccc5)N(C)C)[nH]c4c3)ccc2[nH]1` [Example M29, (2R)-2-(dimethylamino)-N-((1S)-1-(5-((2-((1S)-1-(((2R)-2-(dimethylamino)-2-phenylacetyl)amino)ethyl)-1H-benzimidazol-6-yl)ethynyl)-1H-benzimidazol-2-yl)ethyl)-2-phenylacetamide], the concentration giving a half-maximal response (EC50) is less than 4.57 nM.

Staying with this experiment, now noted: Hepatitis C virus, HCV 1b genotype replicon; numeric values.
As to `O=C(c1cccs1)N1CCC[C@H]1c1nc2cc(C#Cc3ccc4[nH]c([C@@H]5CCCN5C(=O)c5cccs5)nc4c3)ccc2[nH]1` [Example M10, 5,5′-(1,2-ethynediyl)bis(2-((2S)-1-(2-thienylcarbonyl)-2-pyrrolidinyl)-1H-benzimidazole)], the EC50 was found to be 10 nM.

With `COc1ccc2ccc(C(=O)N3CCC[C@H]3c3nc4cc(C#Cc5ccc6[nH]c([C@@H]7CCCN7C(=O)c7ccc8ccc(OC)cc8n7)nc6c5)ccc4[nH]3)nc2c1` [Example M17, 2,2′-(1,2-ethynediylbis(1H-benzimidazole-5,2-diyl(2S)-2,1-pyrrolidinediylcarbonyl))bis(7-methoxyquinoline)], the EC50 worked out at 20 nM.
